For 26 molecules, Kb and melting point results are on record in US10457644B2, “Pyrazol compounds as EAAT3 inhibitors” (Hoffmann-La Roche Inc., priority 2016, dated 2019).

One series deals with T1, human EAAT3 (Homo sapiens, UniProt P43005).
T1 construct: expressed in transfected cells
T1 sequence (P43005 1-524): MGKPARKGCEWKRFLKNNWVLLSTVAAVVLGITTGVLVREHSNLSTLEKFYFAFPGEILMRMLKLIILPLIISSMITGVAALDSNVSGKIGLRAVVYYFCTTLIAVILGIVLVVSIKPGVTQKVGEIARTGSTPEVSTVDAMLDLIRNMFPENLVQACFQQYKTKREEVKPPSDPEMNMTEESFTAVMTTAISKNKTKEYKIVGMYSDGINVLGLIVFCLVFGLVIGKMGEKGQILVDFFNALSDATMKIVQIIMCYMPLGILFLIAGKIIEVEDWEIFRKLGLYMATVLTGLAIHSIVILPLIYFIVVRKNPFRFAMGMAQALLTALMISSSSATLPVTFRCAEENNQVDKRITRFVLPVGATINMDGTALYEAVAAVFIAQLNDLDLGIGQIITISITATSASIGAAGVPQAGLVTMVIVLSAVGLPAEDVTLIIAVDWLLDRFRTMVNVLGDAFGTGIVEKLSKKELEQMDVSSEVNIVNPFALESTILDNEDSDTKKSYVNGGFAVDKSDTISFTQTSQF
In words: FLIPR Membrane Potential (FMP) assay. The series is classed as cell-based. The settings on record: HEK-293 cells stably expressing human EAAT3; L-glutamate as agonist at 80% of maximum response; antagonist applied 15 min before; Kb by Cheng-Prusoff from IC50. The protocol:
The FLIPR Membrane Potential (FMP) Assay
HEK-293 cells stably expressing human EAAT3 were seeded at 55 000 cells/well in growth medium (DMEM glutamate free (Invitrogen 11960-044), 1% Pen Strep (10 ml/l GIBCO BRL N^o 15140-023), 10% FCS non dialysed heat inactivated, 5 mg/l puromycin) in poly-D-lysine treated 96-well black microtiter plates with clear-bottom. After 24 h, the growth medium was removed and 100 μl/well of Krebs buffer (140 mM NaCl, 4.7 mM KCl, 2.5 mM CaCl2, 1.2 mM MgCl2, 11 mM HEPES, 10 mM D-glucose, pH=7.4) added. The cells were then loaded by adding 100 μl/well FMP assay dye (FLIPR Membrane Potential assay reagent, Molecular Devices). The 96-well plates were then incubated at 37° C. for 1 h. The depolarization of the cells will cause more dye to enter in the cells, where it will bind to intracellular proteins and lipids and cause an increase in the fluorescence signal. Antagonist potency at human EAAT3 was determined by using L-glutamate as agonist at a concentration which gives 80% of the maximum response. The antagonists were applied 15 min before the application of the agonist L-glutamate. The assays were performed at room temperature and measurements done by using a Fluorometric Imaging Plate Reader (FLIPR, Molecular Devices) and filter #2. Responses were measured as peak increase in fluorescence minus basal (i.e. fluorescence without addition of L-glutamate). Kb was determined using the Cheng-Prusoff equation Kb=IC50/[1+(A/EC50)], where IC50 is the concentration of the antagonist producing 50% inhibition, A is the concentration of the agonist against which the IC50 is being determined ([…]) and EC50 is the concentration of the agonist producing […].

With `CC(C)n1nccc1-c1cc(C(=O)NC(C)(C)C)cc(-c2ccc(F)c(F)c2)c1` [Example 8, N-tert-Butyl-3-(3,4-difluorophenyl)-5-(2-propan-2-yl-pyrazol-3-yl)-benzamide], the melting point – broadly, the temperature of the solid-liquid transition – was found to be 82 °C. Also, the Kb – broadly, the equilibrium dissociation constant of an antagonist, usually derived from a functional assay – on human EAAT3 was 390 nM.
As to `CC(C)(C)NC(=O)c1cc(-c2ccc(C3CC3)cc2)cc(-c2ccnn2C(C)(C)C)c1` [Example 37, N-tert-Butyl-3-(2-tert-butyl-pyrazol-3-yl)-5-(4-cyclopropyl-phenyl)-benzamide], the melting point worked out at 198.5 °C. Further, at human EAAT3, the antagonist dissociation constant (Kb) is 1130 nM.
The like results for `CC(C)(C)NC(=O)c1cc(-c2ccc(Cl)cc2)cc(-c2ccnn2C2CC2)c1` [Example 45, N-tert-Butyl-3-(4-chlorophenyl)-5-(2-cyclopropyl-pyrazol-3-yl)-benzamide] were, in that order, 72 °C and 260 nM.
Molecule `CC(C)(C)NC(=O)c1cc(-c2ccc(Cl)cc2)cc(-c2ccnn2CC2CC2)c1` [Example 25, N-tert-Butyl-3-(4-chlorophenyl)-5-[2-(cyclopropyl-methyl)-pyrazol-3-yl]-benzamide] displayed a melting point of 159 °C. Moreover, the Kb on human EAAT3 was determined as 250 nM.
The molecule `CC(C)n1nccc1-c1cc(C(=O)NC(C)(C)C)cc(-c2ccc(F)cc2)c1` [Example 6, N-tert-Butyl-3-(4-fluorophenyl)-5-(2-propan-2-yl-pyrazol-3-yl)-benzamide] showed a melting point of 161 °C. At human EAAT3, this molecule returned a Kb of 95 nM.
Turning to `Cc1ccc(-c2cc(C(=O)NC(C)(C)C)cc(-c3ccnn3C(C)C)c2)cc1F` [Example 20, N-tert-Butyl-3-(3-fluoro-4-methyl-phenyl)-5-(2-propan-2-yl-pyrazol-3-yl)-benzamide], the melting point worked out at 81 °C. On human EAAT3, this molecule registered a Kb of 360 nM.
In the case of `CC(C)(C)NC(=O)c1cc(-c2ccccc2)cc(-c2ccnn2C(C)(C)C)c1` [Example 28, N-tert-Butyl-3-(2-tert-butyl-pyrazol-3-yl)-5-phenyl-benzamide], the melting point came out at 199.5 °C. Moreover, the antagonist dissociation constant (Kb) on human EAAT3 was found to be 470 nM.
Molecule `CC(C)c1ccc(-c2cc(C(=O)NC(C)(C)C)cc(-c3ccnn3C(C)C)c2)cc1` [Example 10, N-tert-Butyl-3-(4-propan-2-yl-phenyl)-5-(2-propan-2-yl-pyrazol-3-yl)-benzamide] came in with a melting point of 86 °C. Besides, at human EAAT3, the antagonist dissociation constant (Kb) worked out at 550 nM.
For `CC(C)(C)NC(=O)c1cc(-c2ccc(F)c(Cl)c2)cc(-c2ccnn2C(C)(C)C)c1` [Example 32, N-tert-Butyl-3-(2-tert-butyl-pyrazol-3-yl)-5-(3-chloro-4-fluoro-phenyl)-benzamide], the melting point amounted to 175 °C. The molecule further gave a Kb at human EAAT3 of 410 nM.
Consider `CC(C)(C)NC(=O)c1cc(-c2ccc(F)cc2)cc(-c2ccnn2C2CC2)c1` [Example 23, N-tert-Butyl-3-(2-cyclopropyl-pyrazol-3-yl)-5-(4-fluorophenyl)-benzamide], for which the melting point turned out to be 66 °C. On human EAAT3, the Kb worked out at 110 nM.
As to `CC(C)n1nccc1-c1cc(C(=O)NC(C)(C)C#N)cc(-c2ccc(Cl)cc2)c1` [Example 21, 3-(4-Chlorophenyl)-N-(2-cyano-propan-2-yl)-5-(2-propan-2-yl-pyrazol-3-yl)-benzamide], the melting point is 96 °C. At human EAAT3, this molecule had an antagonist equilibrium constant (Kb) of 320 nM.
Turning to `CCn1nccc1-c1cc(C(=O)NC(C)(C)C)cc(-c2ccc(C(F)(F)F)cc2)c1` [Example 48, N-tert-Butyl-3-(2-ethyl-pyrazol-3-yl)-5-[4-(trifluoromethyl)-phenyl]-benzamide], the melting point stood at 70 °C. Further, the Kb on human EAAT3 is 290 nM.
Molecule `Cn1nccc1-c1cc(C(=O)NC(C)(C)C)cc(-c2ccc(Cl)cc2)c1` [Example 1, N-tert-Butyl-3-(4-chlorophenyl)-5-(2-methyl-pyrazol-3-yl)-benzamide] yielded a melting point of 191 °C. Besides, the antagonist dissociation constant (Kb) at human EAAT3 turned out to be 240 nM.
Taken in the same sequence, the figures for `CC(C)(C#N)NC(=O)c1cc(-c2ccc(Cl)cc2)cc(-c2ccnn2C(C)(C)C)c1` [Example 22, 3-(2-tert-Butylpyrazol-3-yl)-5-(4-chlorophenyl)-N-(2-cyanopropan-2-yl)-benzamide] were 119 °C and 370 nM.
Taken in the same sequence, the figures for `CCC(C)(C)NC(=O)c1cc(-c2ccc(Cl)cc2)cc(-c2ccnn2C(C)(C)C)c1` [Example 18, 3-(2-tert-Butyl-pyrazol-3-yl)-5-(4-chlorophenyl)-N-(2-methyl-butan-2-yl)-benzamide] were 183.5 °C and 3420 nM.
`CC(C)n1nccc1-c1cc(C(=O)NC(C)(C)C(F)(F)F)cc(-c2ccc(Cl)cc2)c1` [Example 40, 3-(4-Chlorophenyl)-5-(2-propan-2-yl-pyrazol-3-yl)-N-(1,1,1-trifluoro-2-methyl-propan-2-yl)-benzamide] came in with a melting point of 77.5 °C. Further, the antagonist equilibrium constant (Kb) on human EAAT3 turned out to be 620 nM.
Taken in the same sequence, the figures for `CC(C)n1nccc1-c1cc(C(=O)NC(C)(C)C)cc(-c2ccc(Cl)c(F)c2)c1` [Example 16, N-tert-Butyl-3-(4-chloro-3-fluoro-phenyl)-5-(2-propan-2-yl-pyrazol-3-yl)-benzamide] were 87 °C and 310 nM.
The like results for `CC(C)(C)NC(=O)c1cc(-c2ccc(C(F)(F)F)cc2)cc(-c2ccnn2C2CC2)c1` [Example 43, N-tert-Butyl-3-(2-cyclopropyl-pyrazol-3-yl)-5-[4-(trifluoromethyl)-phenyl]-benzamide] were, in that order, 72 °C and 320 nM.
Taken in the same sequence, the figures for `CC(C)n1nccc1-c1cc(C(=O)NC(C)(C)C)cc(-c2ccc(C(F)(F)F)cc2)c1` [Example 7, N-tert-Butyl-3-(2-propan-2-yl-pyrazol-3-yl)-5-[4-(trifluoromethyl)-phenyl]-benzamide] were 81 °C and 180 nM.
`CCn1nccc1-c1cc(C(=O)NC(C)(C)C)cc(-c2ccc(F)cc2)c1` [Example 47, N-tert-Butyl-3-(2-ethyl-pyrazol-3-yl)-5-(4-fluorophenyl)-benzamide] came in with a melting point of 162 °C. In addition, the Kb at human EAAT3 stood at 110 nM.
The like results for `CC(C)(C)NC(=O)c1cc(-c2ccc(C(F)(F)F)cc2)cc(-c2ccnn2C(C)(C)C)c1` [Example 3, N-tert-Butyl-3-(2-tert-butyl-pyrazol-3-yl)-5-[4-(trifluoromethyl)-phenyl]-benzamide] were, in that order, 205 °C and 280 nM.
As for `CC(C)n1nccc1-c1cc(C(=O)NC(C)(C)C)cc(-c2ccc(C#N)cc2)c1` [Example 17, N-tert-Butyl-3-(4-cyano-phenyl)-5-(2-propan-2-yl-pyrazol-3-yl)-benzamide], the melting point was determined as 94 °C. In addition, at human EAAT3, the antagonist equilibrium constant (Kb) worked out at 330 nM.
The like results for `Cc1ccc(-c2cc(C(=O)NC(C)(C)C)cc(-c3ccnn3C(C)C)c2)cc1` [Example 9, N-tert-Butyl-3-(4-methylphenyl)-5-(2-propan-2-yl-pyrazol-3-yl)-benzamide] were, in that order, 163 °C and 260 nM.
In the case of `CC(C)n1nccc1-c1cc(C(=O)NC(C)(C)C)cc(-c2ccc(C3CC3)cc2)c1` [Example 14, N-tert-Butyl-3-(4-cyclopropyl-phenyl)-5-(2-propan-2-yl-pyrazol-3-yl)-benzamide], the melting point was 83 °C. At human EAAT3, this molecule showed an antagonist equilibrium constant (Kb) of 880 nM.
Molecule `CC(C)n1nccc1-c1cc(C(=O)NC(C)(C)C2CC2)cc(-c2ccc(Cl)cc2)c1` [Example 26, 3-(4-Chlorophenyl)-N-(2-cyclopropyl-propan-2-yl)-5-(2-propan-2-yl-pyrazol-3-yl)-benzamide] returned a melting point of 169 °C. On human EAAT3, this molecule displayed an antagonist equilibrium constant (Kb) of 1520 nM.
`CC(C)(CO)NC(=O)c1cc(-c2ccc(Cl)cc2)cc(-c2ccnn2C(C)(C)C)c1` [Example 41, 3-(2-tert-Butyl-pyrazol-3-yl)-5-(4-chlorophenyl)-N-(1-hydroxy-2-methylpropan-2-yl)-benzamide] registered a melting point of 83 °C. Moreover, the Kb at human EAAT3 was determined as 260 nM.
